Measurements taken from patent US20110009454A1, “COMPOSITION FOR AGRICULTURAL USE FOR CONTROLLING OR PREVENTING PLANT DISEASES CAUSED BY PLANT PATHOGENS” (SUMITOMO CHEMICAL COMPANY, LIMITED, priority 2008, published 2011).

Tested on: Grape Downy Mildew (Plasmopara viticola)
Assay: Test Example 6: treating grape downy mildew, foliage application
Conditions: 500 ppm, foliage application 1 day after inoculation (curative), grape (Berry-A or Chardonnay seedling), 5 days green house then 1 day high humidity
Procedure: Such control effect was evaluated by visually observing the area of blotch on a test plant during a test and then comparing the area of the blotch of a plant treated with the controlling reagent of the present invention with the area of the blotch of an untreated plant.
A plastic pot was filled with sandy soil, and grape (variety: Berry-A or Chardonnay seedling) was then seeded. The grape plants were allowed to grow in a green house for 40 days. A water suspension of zoosporangium of grape Plasmopara viticola was inoculated to the aforementioned pot by spaying it. Thereafter, the grape plants were left at 23° C. at a high humidity for 1 day, and they were then air-dried, so as to obtain grape downy mildew-infected nursery plants. […] The prepared flowable formulations were set to a predetermined concentration (500 ppm) by diluting them with water, and they were then subjected to foliage application such that they could be sufficiently attached to the leaves of the aforementioned nursery grape plants. After completion of the foliage application, the plants were subjected to air-drying, and they were then left at 23° C. in a green house for 5 days. Thereafter, the plants were further left at 23° C. at a high humidity for 1 day. Thereafter, the affected areas thereof were examined.

SMILES: Cc1ccc(Oc2ccc(CNC(=O)c3cccnc3N)s2)cc1 [compound 236]
- affected areas of treated plants relative to affected areas of untreated plants: ≤ 30%
